Assay results: PMC5353671, “A bacterial aromatic aldehyde dehydrogenase critical for the efficient catabolism of syringaldehyde” (Scientific Reports, 2017)

Columns and labels:
SLG_38120 = biological target: T1, SLG_38120 (Sphingobium sp. SYK-6, UniProt G2IRC1); assay: HPLC, E. coli cell extract; format: biochemical; conditions: 100 μM substrate, 500 μM NAD+, 30 °C
T1 construct: gene feaB; coding region in pET21a(+), extract of E. coli BL21(DE3)
T1 sequence (G2IRC1 1-493): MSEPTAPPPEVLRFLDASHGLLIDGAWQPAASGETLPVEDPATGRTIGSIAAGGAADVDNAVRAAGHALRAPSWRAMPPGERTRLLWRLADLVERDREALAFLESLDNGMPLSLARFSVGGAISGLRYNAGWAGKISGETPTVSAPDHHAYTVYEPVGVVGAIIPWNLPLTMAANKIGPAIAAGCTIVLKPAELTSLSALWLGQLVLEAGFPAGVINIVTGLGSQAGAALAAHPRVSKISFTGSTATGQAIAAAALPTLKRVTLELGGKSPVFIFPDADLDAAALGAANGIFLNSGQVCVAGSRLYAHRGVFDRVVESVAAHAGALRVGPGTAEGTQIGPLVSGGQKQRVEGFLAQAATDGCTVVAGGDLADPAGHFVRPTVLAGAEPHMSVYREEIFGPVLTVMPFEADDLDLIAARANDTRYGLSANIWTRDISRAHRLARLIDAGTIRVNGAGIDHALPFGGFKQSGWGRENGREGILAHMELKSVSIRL

SLG_11410 = biological target: T2, SLG_11410 (Sphingobium sp. SYK-6, UniProt G2IPY8); assay: HPLC, E. coli cell extract; format: biochemical; conditions: 100 μM substrate, 500 μM NAD+, 30 °C
T2 construct: coding region in pET21a(+), extract of E. coli BL21(DE3)
T2 sequence (G2IPY8 1-498): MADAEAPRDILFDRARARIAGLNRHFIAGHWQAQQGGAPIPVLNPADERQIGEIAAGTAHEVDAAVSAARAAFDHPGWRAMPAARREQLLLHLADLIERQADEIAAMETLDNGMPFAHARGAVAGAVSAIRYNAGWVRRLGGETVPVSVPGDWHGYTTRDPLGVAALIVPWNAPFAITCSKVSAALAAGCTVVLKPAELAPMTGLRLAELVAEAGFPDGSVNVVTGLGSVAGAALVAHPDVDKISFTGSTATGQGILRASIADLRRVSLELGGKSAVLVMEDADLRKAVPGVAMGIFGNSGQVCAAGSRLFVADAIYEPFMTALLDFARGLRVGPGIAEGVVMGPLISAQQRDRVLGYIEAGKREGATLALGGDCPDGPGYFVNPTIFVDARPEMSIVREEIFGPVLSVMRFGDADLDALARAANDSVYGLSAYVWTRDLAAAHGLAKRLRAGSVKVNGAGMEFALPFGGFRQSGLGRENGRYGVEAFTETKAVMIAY

## COc1cc(C=O)cc(OC)c1O [syringaldehyde]
SLG_38120
  specific activity: All these aromatic ALDH gene products converted SN into syringate
SLG_11410
  specific activity: All these aromatic ALDH gene products converted SN into syringate
